The values below come from US7091192B1, “Linear cyclodextrin copolymers” (California Institute of Technology, priority 1998, dated 2006).

Series [1] relates to KB cell line. The series is described as follows: MTT toxicity assay, small molecule delivery to cultured cells (KB). The protocol: (§1) Media containing doxorubicin and doxorubicin/CD-polymer complexes at various concentrations were applied to cultured cell lines. After 5 hours, the media was removed and replaced with fresh media. […] ([…], “Culture of Animal Cells”, 3rd ed., Wiley-Liss: New York (1994)). […] For receptor-mediated delivery, a ligand such a folate is covalently attached to the CD-polymer used for doxorubicin complexation.

The subject of series [2] is KB-VI (a multidrug resistant derivative of KB) cell line. The series is described as follows: MTT toxicity assay, small molecule delivery to cultured cells (KB-VI). The procedure:
as §1
For orientation: Formazan colour is commonly taken as a measure of viable cells.

For series [3] the following is noted: pH 7.1; Husain et al., Applied Spectroscopy 1992; cited from earlier work.
The mark [4] stands for this setting: Homo sapiens, KB, 5 h, read-out: IC50 (μM of doxorubicin).

Broadly, the IC50 is the concentration at which inhibition is half-maximal.

For the compound `COc1cccc2c1C(=O)c1c(O)c3c(c(O)c1C2=O)C[C@@](O)(C(=O)CO)C[C@@H]3O[C@H]1C[C@H](N)[C@H](O)[C@H](C)O1` [doxorubicin], the IC50 in series [1] (setting [4]) was roughly 0.1 µM; in series [2] (setting [4]) it was roughly 10 µM.
As to `OC[C@H]1O[C@@H]2O[C@H]3[C@H](O)[C@@H](O)[C@@H](O[C@H]4[C@H](O)[C@@H](O)[C@@H](O[C@H]5[C@H](O)[C@@H](O)[C@@H](O[C@H]6[C@H](O)[C@@H](O)[C@@H](O[C@H]7[C@H](O)[C@@H](O)[C@@H](O[C@H]8[C@H](O)[C@@H](O)[C@@H](O[C@H]1[C@H](O)[C@H]2O)O[C@@H]8CO)O[C@@H]7CO)O[C@@H]6CO)O[C@@H]5CO)O[C@@H]4CO)O[C@@H]3CO` [β-CD, β-cyclodextrin], in series [3], the “Association constant between β-CD and doxorubicin” value is 210 M⁻¹.
For “β-cyclodextrin(cystamine)-DTBP Copolymer [Copolymer 15]”, the “Toxicity to KB cells in the absence of doxorubicin” value in series [1] is given as “not toxic”. In series [2], the “Toxicity to KB-VI cells in the absence of doxorubicin” value was “not toxic”.
